Each structure is given as a SMILES string.

The subject of one test is HIV-1 IIIB. The test is described as follows: Anti-HIV-1 activity in MT-2 cells, virus-induced cytopathic effect (CellTiter-Glo). The test is classed as cell-based. Particulars: MT-2 cells infected with HIV-1 IIIB, 5-day incubation; mean ± SD. As to the method: MT-2 cells were maintained in RPMI-1640 medium supplemented with antibiotics and 10% fetal bovine serum (FBS). MT-2 cells were infected with HIV-1 IIIB at a multiplicity of infection (moi) of 0.01 and added to 96-well plates with serial dilutions of tested compounds at a density of 20,000 cells/well. […] Activity against NRTI-resistant mutants was determined in parallel with wild-type control virus and fold change in EC50 was calculated.
(In general: Cytopathic effects are the visible damage that an infection or toxin causes in cultured cells.)

The test system of the next test is HIV-1 BaL. The test is described as follows: Anti-HIV-1 activity in activated PBMC, p24 ELISA. Type of test: cell-based. Particulars: activated PBMC infected with HIV-1 BaL, 5 days, mean ± SD. As to the method: Activated PBMC were infected with HIV-1 BaL for 3 hours, washed, seeded into 96-well plates (250,000 cells/well) and incubated with serial dilutions of tested compounds for 5 days, at which point cell supernatants were collected and virus production was determined using commercial HIV-1 p24 ELISA (Beckman Coulter, Miami, Fla.).

For orientation: EC50 means the midpoint of the concentration-response curve. Lower therefore signals a more potent agent. In the case of `Nc1ncnc2c1ncn2[C@@H]1O[C@H](OCP(=O)(O)O)C=C1F` [Parent Compound], the concentration giving a half-maximal response (EC50) with HIV-1 IIIB was found to be 10.6 ± 2.4 µM; with HIV-1 BaL, 8.5 ± 7.7 µM.

(Values after US8951986B2, “Salts of HIV inhibitor compounds” (Gilead Sciences, Inc., priority 2008, dated 2015).)
